system: HCVser-1b; assay: Drug inhibition assay in HCVser-infected hADSC; assay type: cell-based, hepatitis C virus; conditions: p4-5 hADSC, graded concentrations, 21 days' cell lysates, qRT-PCR, IFNα as 16 h pretreatment

**Q.** For `NC(=O)c1ncn([C@@H]2O[C@H](CO)[C@@H](O)[C@H]2O)n1` [ribavirin], which “HCV replication (viral 5'-UTR transcripts, fraction inhibition vs vehicle control)” value is on record?
**A.** inhibited in a dose-responsive manner

**Q.** For IFNα, which “HCV replication (viral 5'-UTR transcripts, fraction inhibition vs vehicle control)” value is on record?
**A.** inhibited in a dose-responsive manner

**Q.** Which “HCV replication (viral 5'-UTR transcripts, fraction inhibition vs vehicle control)” value does the source give for cyclosporine A here?
**A.** inhibited in a dose-responsive manner

From patent US10273461B2, “Employing human adipose-derived stem cells to propagate serum-derived hepatitis C virus and use thereof” (FRONTIER BIO-DRUG DEVELOPMENT LIMITED, priority 2015, dated 2019)
